Source: patent US9193744B2, “Heterocyclic nuclear hormone receptor modulators” (AbbVie Inc., priority 2012, dated 2015)
pIC50: −log10 of the molar value. Like-named read-outs stand apart in the source and are kept apart here.

Experiments:
[1] = target: T1, Glucocorticoid Receptor (GR) (Homo sapiens, UniProt P04150); experiment: GR Fluorescence Polarization Assay (PolarScreen Glucocorticoid Receptor Competitor Assay, Red); settings: fluorescence polarization binding ranges
T1 construct: purchased Invitrogen P2893
T1 sequence (P04150 1-777): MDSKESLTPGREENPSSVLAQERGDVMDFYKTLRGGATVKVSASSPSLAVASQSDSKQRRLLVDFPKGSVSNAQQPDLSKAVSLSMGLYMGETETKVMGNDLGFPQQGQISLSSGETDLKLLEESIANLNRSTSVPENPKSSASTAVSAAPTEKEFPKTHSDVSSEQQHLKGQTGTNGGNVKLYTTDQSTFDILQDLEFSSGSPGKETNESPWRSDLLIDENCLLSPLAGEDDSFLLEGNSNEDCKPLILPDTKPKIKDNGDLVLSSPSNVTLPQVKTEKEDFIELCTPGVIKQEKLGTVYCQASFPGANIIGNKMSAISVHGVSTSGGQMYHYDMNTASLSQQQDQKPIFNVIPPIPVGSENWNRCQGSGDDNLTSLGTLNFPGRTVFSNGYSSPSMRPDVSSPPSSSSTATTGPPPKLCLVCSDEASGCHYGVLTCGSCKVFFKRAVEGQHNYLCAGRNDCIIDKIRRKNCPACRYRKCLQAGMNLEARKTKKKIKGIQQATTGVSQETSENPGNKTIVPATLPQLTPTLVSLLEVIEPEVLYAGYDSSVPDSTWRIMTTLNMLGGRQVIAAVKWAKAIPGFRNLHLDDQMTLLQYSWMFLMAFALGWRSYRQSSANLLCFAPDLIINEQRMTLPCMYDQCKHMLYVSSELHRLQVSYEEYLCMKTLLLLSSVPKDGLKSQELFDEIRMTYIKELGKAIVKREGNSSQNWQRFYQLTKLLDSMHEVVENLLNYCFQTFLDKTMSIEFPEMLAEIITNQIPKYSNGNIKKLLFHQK
Description: Fluorescence polarization assays were carried out using the PolarScreen™ Glucocorticoid Receptor Competitor Assay, Red from Invitrogen (P2893). The assay buffer was prepared according to the manufacturer's protocol and used to dilute the fluorescent glucocorticoid and GR. Compounds were prepared and serial diluted 1:4 in DMSO. Compound, fluorescent glucocorticoid and GR were added in a final volume of 20 μL and incubated overnight at 4° C. Fluorescent polarization was measured on the PerkinElmer Envision®. Fluorescence polarization binding ranges measured using GR Fluorescence Polarization Assay: […]

IL-6 = experiment: A549 Cell Assay to Measure Inflammation Markers (inhibition of IL-1β-induced IL-6); type: cell-based; settings: A549 cells, read-out: A549 cell assay
Description: A549 Cell Assay to Measure Inflammation Markers
A549 cells were seeded (3E4 cells/well) in 96-well assay plates in culture medium (100 μL/well., F-12 K base media, supplemented with 10% FBS and 100 μ/mL-100 μg/mL Pen-Strep.) After overnight culture in an incubator set to 37° C., 4.9% CO2, and 90% humidity, media was removed from adherent cells by aspiration and replaced with 100 μL/well Assay Medium (F-12 K base media supplemented with 5% charcoal stripped calf sera and 100 U/mL-100 μg/mL Pen-Strep.) Compounds were prepared in DMSO and serial diluted (1:3, 1:4, or 1:5) with DMSO in Dilution Plate(s) to give 10 dilution points for each compound tested. Further dilution (1:250) of compound was made into assay medium and 50 μL/well diluted drug or DMSO/media control was applied to cells. After a 1 h pre-incubation in a temperature, CO2, and humidity controlled incubator, set to 37° C., 50 μL/well of 4 ng/mL IL-1β diluted in assay media, was applied to cultures. Assay plates, with a final volume of 200 μL/well and final concentrations of 0.1% DMSO and 1 ng/mL IL-1β were returned to incubator for a four h incubation period. Next, plates were spun at 183 g (1000 rpm in Beckman/Coulter Allegra 6KR centrifuge) for 10 min. Cell-free supernatant (150 μL/well) was collected and IL-6 was measured by MSD kit, following protocol of manufacturer, and using MSD SECTOR Imager 6000 instrument. Potency of compounds to inhibit IL-6 was determined using the percent reduction of measured IL-6 in wells with compound compared to control wells without drug, and relative to (100% inhibition) positive control compound of 1 μM prednisolone. Results were represented as IC50 and Emax values. To verify that viable cell numbers were similar across plate(s), and not confounding compound IC50 data interpretation, the remaining 50 μL/well of cells and media (after removal of supernatant) were used to run Cell Titer-Glo Assay per directions of manufacturer.

pIC50 [1] | pIC50 (IL-6; Homo sapiens) | pIC50 (IL-6) | SMILES
> 7.00 | > 7.00 | – | CC(=O)NC[C@@]12CC[C@](O)(C(F)(F)F)C[C@H]1CCCc1cc3c(cnn3-c3ccc(F)cc3)cc12 (single isomer, unassigned) [Example 84]
> 7.00 | > 7.00 | – | O=S1(=O)CCCN1C[C@@]12CC[C@](O)(C(F)(F)F)C[C@H]1CCCc1cc3c(cnn3-c3ccc(F)cc3)cc12 [Example 75, 2-(((3R,4aR,12bS)-9-(4-fluorophenyl)-3-hydroxy-3-(trifluoromethyl)-1,2,3,4,4a,5,6,7,9,12b-decahydrobenzo[6,7]cyclohepta[1,2-f]indazol-12b-yl)methyl)isothiazolidine 1,1-dioxide]
> 7.00 | – | < 5.00 | COC[C@]1(O)CC[C@]2(Cc3ncccn3)c3cc4cnn(-c5ccc(F)cc5)c4cc3CCC[C@@H]2C1 [Example 36]
> 7.00 | – | > 7.00 | CC[C@@]12CC[C@](O)(CC#N)C[C@@H]1CCCc1cc3c(cnn3-c3ccc(F)cc3)cc12 [Example 65]
> 7.00 | – | > 7.00 | N#CC[C@@]1(O)CC[C@@]2(Cc3ncccn3)c3cc4cnn(-c5ccc(F)cc5)c4cc3CCC[C@H]2C1 [Example 62]
6.00 to 7.00 | < 5.00 | – | CC[C@]12CC[C@](O)(C(F)(F)F)C[C@H]1CCCc1c2cc2cnn(-c3ccc(F)cc3)c2c1Br [Example 92, (3R,4aR,12bS)-8-Bromo-12b-ethyl-9-(4-fluorophenyl)-3-(trifluoromethyl)-1,2,3,4,4a,5,6,7,9,12b-decahydrobenzo[6,7]cyclohepta[1,2-f]indazol-3-ol]
> 7.00 | > 7.00 | – | CC[C@@]12CC[C@](O)(C(F)(F)F)C[C@H]1CCCc1c2cc2cnn(-c3ccc(F)cc3)c2c1Br [Example 102, (3R,4aR,12bR)-8-Bromo-12b-ethyl-9-(4-fluorophenyl)-3-(trifluoromethyl)-1,2,3,4,4a,5,6,7,9,12b-decahydrobenzo[6,7]cyclohepta[1,2-f]indazol-3-ol]
> 7.00 | 6.00 to 7.00 | – | N#C[C@@]12CC[C@](O)(C(F)(F)F)C[C@H]1CCCc1cc3c(cnn3-c3ccc(F)cc3)cc12 (single isomer, unassigned) [Example 72]
6.00 to 7.00 | < 5.00 | – | CC[C@]12CC[C@](O)(CN[C@H](C)c3ccccc3)C[C@@H]1CCCc1cc3c(cnn3-c3ccc(F)cc3)cc12 [Example 125, (3R,4aS,12bS)-12b-ethyl-9-(4-fluorophenyl)-3-((((R)-1-phenylethyl)amino)methyl)-1,2,3,4,4a,5,6,7,9,12b-decahydrobenzo[6,7]cyclohepta[1,2-f]indazol-3-ol]
> 7.00 | – | > 7.00 | N#CC[C@@]1(O)CC[C@@]2(CC3CC3)c3cc4cnn(-c5ccc(F)cc5)c4cc3CCC[C@H]2C1 [Example 67]
> 7.00 | > 7.00 | – | CC[C@@]12CC[C@](O)(COC)C[C@@H]1CCOc1cc3c(cnn3-c3ccncc3)cc12 (racemic) [Example 132]
> 7.00 | – | > 7.00 | N#CC[C@@]1(O)CC[C@@]2(Cc3ccccn3)c3cc4cnn(-c5ccncc5)c4cc3CCC[C@H]2C1 [Example 68]
> 7.00 | – | > 7.00 | COC[C@@]1(O)CC[C@@]2(Cc3ccccn3)c3cc4cnn(-c5ccc(F)cc5)c4nc3CCC[C@@H]2C1 [Example 156]
> 7.00 | – | > 7.00 | N#CC[C@]1(O)CC[C@]2(CC3CC3)c3cc4cnn(-c5ccc(F)cc5)c4cc3CCC[C@@H]2C1 [Example 66]
> 7.00 | > 7.00 | – | N#CC[C@]1(O)CC[C@]2(Cc3ccccn3)c3cc4cnn(-c5ccc(F)cc5)c4cc3CCC[C@@H]2C1 (single isomer, unassigned) [Example 18]
> 7.00 | > 7.00 | – | C#C[C@@]1(O)CC[C@@]2(CC)c3cc4cnn(-c5ccc(F)cc5)c4cc3CCC[C@@H]2C1 (single isomer, unassigned) [Example 109]
> 7.00 | < 5.00 | – | CC[C@@]12CC[C@@](O)(CN[C@H](C)c3ccccc3)C[C@H]1CCCc1cc3c(cnn3-c3ccc(F)cc3)cc12 [Example 126, (3S,4aR,12bR)-12b-ethyl-9-(4-fluorophenyl)-3-((((R)-1-phenylethyl)amino)methyl)-1,2,3,4,4a,5,6,7,9,12b-decahydrobenzo[6,7]cyclohepta[1,2-f]indazol-3-ol]
> 7.00 | 6.00 to 7.00 | – | CC[C@]12CC[C@@](O)(C(F)(F)F)C=C1CCCc1cc3c(cnn3-c3ccc(F)cc3)cc12 (single isomer, unassigned) [Example 107]
> 7.00 | – | > 7.00 | N#CC[C@@]1(O)CC[C@@]2(Cc3ccccn3)c3cc4cnn(-c5ccc(F)cc5)c4nc3CCC[C@H]2C1 [Example 163]
6.00 to 7.00 | – | > 7.00 | CC#C[C@]1(O)CC[C@]2(CC)c3cc4cnn(-c5ccc(F)cc5)c4cc3CCC[C@H]2C1 [Example 112]
> 7.00 | > 7.00 | – | CC[C@@]1(O)CC[C@@]2(CC)c3cc4cnn(-c5ccc(F)cc5)c4cc3CCC[C@@H]2C1 [Example 113, (3R,4aR,12bR)-3,12b-Diethyl-9-(4-fluorophenyl)-1,2,3,4,4a,5,6,7,9,12b-decahydrobenzo[6,7]cyclohepta[1,2-f]indazol-3-ol]
> 7.00 | – | > 7.00 | C[C@@]1(O)CC[C@@]2(Cc3ncccn3)c3cc4cnn(-c5ccc(F)cc5)c4cc3CCC[C@H]2C1 [Example 55]
> 7.00 | > 7.00 | – | CC[C@@]12CC[C@](O)(C(F)(F)F)C[C@H]1CCC(=O)c1cc3c(cnn3-c3ccc(F)cc3)cc12 [Example 105, (3R,4aR,12bR)-12b-Ethyl-9-(4-fluorophenyl)-3-hydroxy-3-(trifluoromethyl)-1,2,3,4,4a,5,6,12b-octahydrobenzo[6,7]cyclohepta[1,2-f]indazol-7(9H)-one]
> 7.00 | – | > 7.00 | CC[C@@]12CC[C@](O)(COC)C[C@@H]1CCOc1cc3c(cnn3-c3ccc(F)cc3)cc12 (racemic) [Example 129]
> 7.00 | > 7.00 | – | C[C@@]1(O)CC[C@@]2(Cc3ccccn3)c3cc4cnn(-c5ccc(F)cc5)c4cc3CCC[C@H]2C1 (single isomer, unassigned) [Example 15]
> 7.00 | > 7.00 | – | CC[C@@]12CC[C@](O)(C(F)(F)F)C[C@H]1CCCc1nc3c(cnn3-c3ccc(F)cc3)cc12 (single isomer, unassigned) [Example 154]
> 7.00 | < 5.00 | – | CC[C@]12CC[C@](O)(C(F)(F)F)C[C@H]1CC=Cc1cc3c(cnn3-c3ccc(F)cc3)cc12 [Example 93, (3R,4aR,12bS)-12b-Ethyl-9-(4-fluorophenyl)-3-(trifluoromethyl)-1,2,3,4,4a,5,9,12b-octahydrobenzo[6,7]cyclohepta[1,2-f]indazol-3-ol]
6.00 to 7.00 | < 5.00 | – | CC[C@]12CC[C@](O)(COC)C[C@@H]1CCCc1cc3c(cnn3-c3ccc(F)cc3)cc12 (single isomer, unassigned) [Example 8]
– | – | > 7.00 | Cc1cc(-n2ncc3cc4c(cc32)CCC[C@H]2C[C@@](O)(CC#N)CC[C@@]42Cc2ccccn2)ccn1 [Example 70]
